This is an account of results in ChEMBL document CHEMBL3991601, “The target landscape of clinical kinase drugs” (Science, 2017).

The structures appear in SMILES notation. The source made the active and inactive calls. A value given as a limit tells only on which side of the number the result lay.

Experiment [1] has as its target T1, Dynamin-like GTPase OPA1, mitochondrial (Homo sapiens, UniProt O60313).
T1 sequence (O60313 whole entry): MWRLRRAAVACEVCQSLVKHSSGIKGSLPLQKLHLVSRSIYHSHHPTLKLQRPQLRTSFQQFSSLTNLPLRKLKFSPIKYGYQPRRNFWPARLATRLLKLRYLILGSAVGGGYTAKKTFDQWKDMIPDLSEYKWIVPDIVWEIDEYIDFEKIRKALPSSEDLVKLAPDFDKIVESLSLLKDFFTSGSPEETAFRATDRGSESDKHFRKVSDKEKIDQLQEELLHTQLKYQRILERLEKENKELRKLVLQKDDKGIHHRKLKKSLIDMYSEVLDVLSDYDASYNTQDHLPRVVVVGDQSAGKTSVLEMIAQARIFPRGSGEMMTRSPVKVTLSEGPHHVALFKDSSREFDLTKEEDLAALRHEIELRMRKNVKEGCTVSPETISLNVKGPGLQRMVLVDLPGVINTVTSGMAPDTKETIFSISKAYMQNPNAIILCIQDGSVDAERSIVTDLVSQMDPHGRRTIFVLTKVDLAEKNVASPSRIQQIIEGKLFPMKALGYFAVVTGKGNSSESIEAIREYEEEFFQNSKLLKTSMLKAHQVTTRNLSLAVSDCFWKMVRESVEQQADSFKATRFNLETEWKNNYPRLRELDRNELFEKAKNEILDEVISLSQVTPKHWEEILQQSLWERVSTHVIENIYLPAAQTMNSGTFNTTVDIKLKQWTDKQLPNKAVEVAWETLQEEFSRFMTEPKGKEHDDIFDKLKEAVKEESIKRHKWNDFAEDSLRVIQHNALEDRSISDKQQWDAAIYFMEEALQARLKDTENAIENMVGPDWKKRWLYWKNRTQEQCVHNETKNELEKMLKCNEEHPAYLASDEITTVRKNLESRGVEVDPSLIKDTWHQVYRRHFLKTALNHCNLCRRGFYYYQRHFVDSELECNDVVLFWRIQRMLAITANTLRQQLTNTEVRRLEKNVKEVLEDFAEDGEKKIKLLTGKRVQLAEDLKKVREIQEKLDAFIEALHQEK

The target in experiment [2] is T2, Dual specificity mitogen-activated protein kinase kinase 5 (Homo sapiens, UniProt Q13163).
T2 sequence (Q13163 whole entry): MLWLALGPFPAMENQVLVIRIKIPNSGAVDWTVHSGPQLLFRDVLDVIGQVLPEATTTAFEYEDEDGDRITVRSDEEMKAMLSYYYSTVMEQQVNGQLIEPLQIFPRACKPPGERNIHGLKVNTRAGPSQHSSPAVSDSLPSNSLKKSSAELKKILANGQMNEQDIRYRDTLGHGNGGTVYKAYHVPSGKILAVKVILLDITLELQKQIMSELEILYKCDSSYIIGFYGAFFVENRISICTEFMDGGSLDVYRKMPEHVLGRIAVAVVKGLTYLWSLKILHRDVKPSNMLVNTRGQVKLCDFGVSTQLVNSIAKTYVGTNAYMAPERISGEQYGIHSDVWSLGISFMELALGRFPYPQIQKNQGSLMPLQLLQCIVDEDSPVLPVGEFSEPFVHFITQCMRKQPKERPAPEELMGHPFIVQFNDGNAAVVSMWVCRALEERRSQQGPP

Experiment [3] deals with T3, Mitogen-activated protein kinase kinase kinase kinase 2 (Homo sapiens, UniProt Q12851).
T3 sequence (Q12851 whole entry): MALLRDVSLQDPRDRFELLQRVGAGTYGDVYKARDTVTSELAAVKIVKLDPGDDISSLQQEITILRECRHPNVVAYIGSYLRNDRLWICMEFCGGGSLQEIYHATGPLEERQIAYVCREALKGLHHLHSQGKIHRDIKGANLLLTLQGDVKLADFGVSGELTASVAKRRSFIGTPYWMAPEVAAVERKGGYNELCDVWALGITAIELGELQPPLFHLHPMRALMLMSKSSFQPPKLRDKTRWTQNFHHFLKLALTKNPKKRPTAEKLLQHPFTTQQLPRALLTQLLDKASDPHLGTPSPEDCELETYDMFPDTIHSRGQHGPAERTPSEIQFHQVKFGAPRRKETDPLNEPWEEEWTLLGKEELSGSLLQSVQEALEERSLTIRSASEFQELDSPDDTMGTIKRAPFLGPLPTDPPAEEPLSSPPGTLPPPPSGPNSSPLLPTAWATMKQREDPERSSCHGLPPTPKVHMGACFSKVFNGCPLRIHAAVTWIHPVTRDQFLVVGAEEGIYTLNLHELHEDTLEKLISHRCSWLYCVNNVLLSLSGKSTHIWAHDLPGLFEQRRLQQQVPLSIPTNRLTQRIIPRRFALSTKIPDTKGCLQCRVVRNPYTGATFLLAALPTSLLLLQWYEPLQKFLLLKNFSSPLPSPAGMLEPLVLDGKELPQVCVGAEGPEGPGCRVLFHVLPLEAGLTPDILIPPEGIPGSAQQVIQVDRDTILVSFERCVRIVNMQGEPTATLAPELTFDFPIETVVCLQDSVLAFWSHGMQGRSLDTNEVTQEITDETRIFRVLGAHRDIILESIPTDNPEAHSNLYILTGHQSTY

The target of experiment [4] is cAMP-dependent protein kinase catalytic subunit alpha (Homo sapiens, UniProt P17612).
In experiment [5] the target is Mitogen-activated protein kinase 1 (Homo sapiens, UniProt P28482).
Chain of Mitogen-activated protein kinase 1 (P28482 whole entry): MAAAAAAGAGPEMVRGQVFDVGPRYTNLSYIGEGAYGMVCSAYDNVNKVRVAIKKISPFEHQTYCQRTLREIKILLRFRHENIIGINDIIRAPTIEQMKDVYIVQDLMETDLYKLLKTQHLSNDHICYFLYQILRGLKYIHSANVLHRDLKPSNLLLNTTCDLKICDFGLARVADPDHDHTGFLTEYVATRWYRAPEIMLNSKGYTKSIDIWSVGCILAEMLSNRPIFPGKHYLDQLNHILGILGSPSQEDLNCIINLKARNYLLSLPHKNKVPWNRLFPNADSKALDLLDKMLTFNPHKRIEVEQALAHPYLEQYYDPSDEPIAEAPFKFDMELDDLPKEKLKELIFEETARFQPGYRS
Experiment [6] deals with Eukaryotic translation initiation factor 2-alpha kinase 1 (Homo sapiens, UniProt Q9BQI3).
Chain of Eukaryotic translation initiation factor 2-alpha kinase 1 (Q9BQI3 whole entry): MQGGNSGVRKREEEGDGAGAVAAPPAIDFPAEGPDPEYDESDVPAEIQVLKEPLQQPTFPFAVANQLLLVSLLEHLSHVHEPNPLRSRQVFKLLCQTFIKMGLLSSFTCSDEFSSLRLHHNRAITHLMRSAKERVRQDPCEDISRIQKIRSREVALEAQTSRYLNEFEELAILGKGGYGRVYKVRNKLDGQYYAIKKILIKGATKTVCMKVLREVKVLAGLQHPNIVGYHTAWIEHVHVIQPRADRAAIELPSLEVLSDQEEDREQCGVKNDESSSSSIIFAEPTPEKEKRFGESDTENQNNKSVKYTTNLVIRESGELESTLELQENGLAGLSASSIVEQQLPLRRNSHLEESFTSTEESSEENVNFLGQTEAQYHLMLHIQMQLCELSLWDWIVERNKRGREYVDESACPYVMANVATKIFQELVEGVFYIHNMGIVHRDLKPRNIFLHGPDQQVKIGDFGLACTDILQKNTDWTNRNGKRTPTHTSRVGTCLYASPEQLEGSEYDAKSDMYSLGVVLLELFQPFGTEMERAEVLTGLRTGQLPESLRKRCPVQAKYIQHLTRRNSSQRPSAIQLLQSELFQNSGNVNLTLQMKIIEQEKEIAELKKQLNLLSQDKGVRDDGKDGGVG
The target of the next experiment is T4, Rab-like protein 3 (Homo sapiens, UniProt Q5HYI8).
T4 sequence (Q5HYI8 whole entry): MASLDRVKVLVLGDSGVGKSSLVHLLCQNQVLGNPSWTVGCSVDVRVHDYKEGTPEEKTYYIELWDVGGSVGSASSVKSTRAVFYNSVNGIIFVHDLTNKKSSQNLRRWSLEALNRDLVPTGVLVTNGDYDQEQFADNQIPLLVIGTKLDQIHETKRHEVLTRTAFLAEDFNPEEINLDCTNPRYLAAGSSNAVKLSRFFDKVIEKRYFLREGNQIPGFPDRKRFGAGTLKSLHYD

A further experiment addresses Activin receptor type-2B (Homo sapiens, UniProt Q13705).
Experiment [7] deals with Ribosomal protein S6 kinase beta-1 (Homo sapiens, UniProt P23443).
Chain of Ribosomal protein S6 kinase beta-1 (P23443 whole entry): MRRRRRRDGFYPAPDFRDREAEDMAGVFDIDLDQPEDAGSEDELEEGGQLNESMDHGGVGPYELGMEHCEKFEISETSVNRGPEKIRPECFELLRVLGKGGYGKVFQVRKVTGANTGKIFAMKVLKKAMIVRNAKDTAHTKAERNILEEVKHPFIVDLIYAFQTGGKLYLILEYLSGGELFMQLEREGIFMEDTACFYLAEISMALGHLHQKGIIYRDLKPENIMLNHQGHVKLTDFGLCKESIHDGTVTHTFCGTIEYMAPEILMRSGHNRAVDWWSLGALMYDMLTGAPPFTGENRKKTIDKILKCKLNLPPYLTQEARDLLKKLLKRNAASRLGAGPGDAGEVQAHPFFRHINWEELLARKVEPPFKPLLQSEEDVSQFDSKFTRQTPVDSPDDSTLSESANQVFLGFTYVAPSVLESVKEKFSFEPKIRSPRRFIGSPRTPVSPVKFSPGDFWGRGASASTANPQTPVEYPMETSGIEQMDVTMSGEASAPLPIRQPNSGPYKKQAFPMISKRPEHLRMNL
Experiment [8] deals with U5 small nuclear ribonucleoprotein 200 kDa helicase (Homo sapiens, UniProt O75643).
Chain of U5 small nuclear ribonucleoprotein 200 kDa helicase (O75643 whole entry): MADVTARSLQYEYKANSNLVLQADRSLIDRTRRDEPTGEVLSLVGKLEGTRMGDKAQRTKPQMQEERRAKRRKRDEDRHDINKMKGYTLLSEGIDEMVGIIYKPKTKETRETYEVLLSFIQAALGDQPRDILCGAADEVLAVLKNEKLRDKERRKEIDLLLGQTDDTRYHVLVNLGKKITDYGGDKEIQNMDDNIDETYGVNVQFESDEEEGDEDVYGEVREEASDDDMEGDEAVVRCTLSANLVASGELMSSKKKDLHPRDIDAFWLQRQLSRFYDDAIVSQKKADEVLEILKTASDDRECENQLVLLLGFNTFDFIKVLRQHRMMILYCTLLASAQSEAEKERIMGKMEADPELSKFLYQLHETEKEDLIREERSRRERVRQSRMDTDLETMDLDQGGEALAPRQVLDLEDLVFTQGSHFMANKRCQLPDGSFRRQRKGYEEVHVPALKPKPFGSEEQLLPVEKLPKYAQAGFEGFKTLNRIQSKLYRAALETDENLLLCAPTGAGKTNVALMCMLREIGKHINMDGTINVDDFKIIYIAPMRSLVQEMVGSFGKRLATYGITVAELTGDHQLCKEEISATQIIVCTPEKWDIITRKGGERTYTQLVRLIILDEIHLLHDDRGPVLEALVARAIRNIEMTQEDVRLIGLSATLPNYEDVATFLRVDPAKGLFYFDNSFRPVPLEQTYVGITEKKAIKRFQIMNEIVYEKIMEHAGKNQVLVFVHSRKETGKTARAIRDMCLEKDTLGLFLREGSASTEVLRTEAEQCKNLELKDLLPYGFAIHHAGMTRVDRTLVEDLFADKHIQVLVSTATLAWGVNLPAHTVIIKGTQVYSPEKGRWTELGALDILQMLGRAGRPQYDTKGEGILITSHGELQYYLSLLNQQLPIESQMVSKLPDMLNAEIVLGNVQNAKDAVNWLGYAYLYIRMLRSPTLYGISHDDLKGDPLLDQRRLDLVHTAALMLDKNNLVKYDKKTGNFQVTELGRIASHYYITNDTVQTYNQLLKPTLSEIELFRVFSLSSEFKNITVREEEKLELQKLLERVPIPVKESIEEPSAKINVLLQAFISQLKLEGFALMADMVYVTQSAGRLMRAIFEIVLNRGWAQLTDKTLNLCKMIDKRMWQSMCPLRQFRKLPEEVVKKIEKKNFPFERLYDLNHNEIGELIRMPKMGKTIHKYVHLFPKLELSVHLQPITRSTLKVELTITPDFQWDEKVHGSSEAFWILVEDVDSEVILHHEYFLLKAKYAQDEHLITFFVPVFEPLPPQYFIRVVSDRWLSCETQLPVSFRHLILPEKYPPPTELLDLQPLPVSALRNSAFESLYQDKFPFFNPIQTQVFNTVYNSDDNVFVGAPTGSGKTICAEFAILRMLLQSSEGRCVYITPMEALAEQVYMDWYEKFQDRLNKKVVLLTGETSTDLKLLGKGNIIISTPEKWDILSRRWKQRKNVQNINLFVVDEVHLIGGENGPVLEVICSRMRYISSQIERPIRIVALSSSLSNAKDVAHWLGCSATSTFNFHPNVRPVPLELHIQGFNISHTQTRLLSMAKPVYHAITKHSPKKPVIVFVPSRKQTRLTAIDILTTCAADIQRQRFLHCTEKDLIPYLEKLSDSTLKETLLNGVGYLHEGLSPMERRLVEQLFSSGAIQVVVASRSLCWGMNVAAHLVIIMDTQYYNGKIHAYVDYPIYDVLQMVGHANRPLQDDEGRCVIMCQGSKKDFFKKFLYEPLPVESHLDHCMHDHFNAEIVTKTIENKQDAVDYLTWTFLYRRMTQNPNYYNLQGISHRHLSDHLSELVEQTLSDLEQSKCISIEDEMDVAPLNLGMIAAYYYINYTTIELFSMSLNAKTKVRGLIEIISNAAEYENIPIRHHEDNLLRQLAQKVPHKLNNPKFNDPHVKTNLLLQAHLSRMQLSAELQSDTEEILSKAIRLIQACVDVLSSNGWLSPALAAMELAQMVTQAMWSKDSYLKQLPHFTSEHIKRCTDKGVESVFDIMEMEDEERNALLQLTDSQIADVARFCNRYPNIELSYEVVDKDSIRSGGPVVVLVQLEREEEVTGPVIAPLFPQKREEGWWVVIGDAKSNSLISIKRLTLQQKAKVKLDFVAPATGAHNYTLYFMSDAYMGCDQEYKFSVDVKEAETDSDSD
Also: in the data inactive means no Kd found up to 30 µM.

Chain of Activin receptor type-2B (Q13705 whole entry): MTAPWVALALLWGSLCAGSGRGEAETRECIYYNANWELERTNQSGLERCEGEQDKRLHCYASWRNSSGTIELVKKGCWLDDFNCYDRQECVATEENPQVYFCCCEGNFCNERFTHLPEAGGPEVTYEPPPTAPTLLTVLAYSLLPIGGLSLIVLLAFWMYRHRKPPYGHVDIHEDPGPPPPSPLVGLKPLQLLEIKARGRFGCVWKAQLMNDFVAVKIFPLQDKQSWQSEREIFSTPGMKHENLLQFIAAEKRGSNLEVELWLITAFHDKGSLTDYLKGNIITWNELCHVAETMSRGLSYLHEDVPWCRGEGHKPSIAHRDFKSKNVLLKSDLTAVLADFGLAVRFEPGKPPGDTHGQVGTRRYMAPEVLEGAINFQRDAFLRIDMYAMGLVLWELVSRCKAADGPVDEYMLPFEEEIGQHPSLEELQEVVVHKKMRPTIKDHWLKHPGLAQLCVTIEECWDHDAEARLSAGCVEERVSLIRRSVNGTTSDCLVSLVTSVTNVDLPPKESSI

By Kd is commonly meant a measure of binding affinity in units of concentration. With `C[C@@H](c1ccc2nccn2c1)n1nnc2ncc(-c3cnn(C)c3)nc21` [SAVOLITINIB], the Kd in [1], in experiment [2], in experiment [3], in experiment [4], in experiment [5] and in [6] was > 30 µM (inactive) in each case. Also, the Kd at Rab-like protein 3 and at Activin receptor type-2B was > 30 µM (inactive) throughout.

With `CN1N=C(N)c2cn([C@@H]3O[C@H](COP(=O)(O)O)[C@@H](O)[C@H]3O)c3ncnc1c23` [TRICIRIBINE PHOSPHATE], the Kd in experiment [1], in experiment [2], in experiment [3], in experiment [7], in experiment [4] and in experiment [5] was > 30 µM (inactive) each time. Further, the Kd (in [8]; on Rab-like protein 3; on Activin receptor type-2B) was > 30 µM (inactive) each time.

In the case of `O=C(c1ccc(F)c(F)c1Nc1ccc(I)cc1F)N1CC(O)([C@@H]2CCCCN2)C1` [COBIMETINIB], the Kd in experiment [1], in experiment [2], in [3], in experiment [4], in experiment [5] and in experiment [6] was > 30 µM (inactive) each time. Moreover, the Kd (in [8]; at Rab-like protein 3; at Activin receptor type-2B) was > 30 µM (inactive) each time.

With `Cc1nc(N)sc1-c1ccnc(Nc2ccc(N3CCOCC3)cc2)n1` [CYC-116], the Kd in experiment [1] is > 30 µM (inactive); in experiment [2], 1.48 µM (active); in experiment [6], > 30 µM (inactive); in [8] it was > 30 µM (inactive); at Rab-like protein 3, > 30 µM (inactive); at Activin receptor type-2B, > 30 µM (inactive).

Turning to `Cc1cc(Nc2cc(N3CCN(C)CC3)nc(/C=C/c3ccccc3)n2)n[nH]1` [ENMD-2076], the Kd (in experiment [1]; in experiment [2]; in [8]; at Activin receptor type-2B) was > 30 µM (inactive) each time.

As for `O=C(Nc1cccc(Cl)c1)Nc1ncc(CCNc2ncnc3ccsc23)s1` [SNS-314], the Kd (in experiment [1]; in experiment [2]; in [6]; in [8]; at Rab-like protein 3; at Activin receptor type-2B) was > 30 µM (inactive) in each case.

As for `Nc1nc(N)c2nc(-c3cccc(O)c3)c(-c3cccc(O)c3)nc2n1` [TG100-115], the Kd (in experiment [1]; in experiment [8]; at Rab-like protein 3) was > 30 µM (inactive) each time.

For the molecule `CN1CCN(c2ccc3nc(-c4c(N)c5c(F)cccc5[nH]c4=O)[nH]c3c2)CC1` [DOVITINIB], the Kd (in [1]; in [8]; at Rab-like protein 3) was > 30 µM (inactive) throughout.

For `CCc1cnn2c(NCc3ccc[n+]([O-])c3)cc(N3CCCC[C@H]3CCO)nc12` [DINACICLIB], the Kd in experiment [1], in [2], in [7], in [5], in experiment [6] and in experiment [8] was > 30 µM (inactive) in each case. Besides, the Kd on Rab-like protein 3 and on Activin receptor type-2B was > 30 µM (inactive) each time.

As to `OCCn1cc(-c2cnc3nnn(Cc4ccc5ncccc5c4)c3n2)cn1` [PF-04217903], the Kd in [1], in experiment [2], in experiment [7], in [5], in [6] and in [8] was > 30 µM (inactive) each time. Besides, the Kd on Rab-like protein 3 and at Activin receptor type-2B was > 30 µM (inactive) each time.

On to `CCCS(=O)(=O)Nc1ccc(F)c(C(=O)c2c[nH]c3ncc(-c4ccc(Cl)cc4)cc23)c1F` [VEMURAFENIB], for which the Kd in experiment [1] is > 30 µM (inactive); in experiment [2], 0.734 µM (active); in [7] it was > 30 µM (inactive); in experiment [4], > 30 µM (inactive); in [5], > 30 µM (inactive); in [6], > 30 µM (inactive). In addition, the Kd (in [8]; at Rab-like protein 3; at Activin receptor type-2B) was > 30 µM (inactive) each time.

In the case of `CCn1c(-c2nonc2N)nc2c(C#CC(C)(C)O)ncc(OC[C@H]3CCCNC3)c21` [GSK-690693], the Kd (in [1]; in experiment [8]; on Rab-like protein 3) was > 30 µM (inactive) in each case.

On to `COc1cc2nccc(Oc3ccc(NC(=O)NC4CC4)c(Cl)c3)c2cc1C(N)=O` [LENVATINIB], for which the Kd in experiment [1] was > 30 µM (inactive); in experiment [2] it was 2.91 µM (active); in experiment [3], 0.578 µM (active); in experiment [4] it was > 30 µM (inactive); in [5] it was > 30 µM (inactive); in experiment [6] it was > 30 µM (inactive). The Kd (in experiment [8]; at Rab-like protein 3; at Activin receptor type-2B) was > 30 µM (inactive) in each case.

In the case of `Cc1cn(-c2cc(NC(=O)c3ccc(C)c(Nc4nccc(-c5cccnc5)n4)c3)cc(C(F)(F)F)c2)cn1` [NILOTINIB], the Kd (in experiment [1]; in [8]; on Rab-like protein 3) was > 30 µM (inactive) throughout.

As for `CC(C)Nc1cc(-c2c[nH]c(C(=O)N[C@H](CO)c3cccc(Cl)c3)c2)c(Cl)cn1` [ULIXERTINIB], the Kd in [1], in experiment [2], in [3], in [7], in experiment [4] and in experiment [6] was > 30 µM (inactive) throughout. For the same molecule, the Kd (in experiment [8]; at Rab-like protein 3; at Activin receptor type-2B) was > 30 µM (inactive) each time.
